Reference: US10099993B2, “Metabotropic glutamate receptor positive allosteric modulators (PAMS) and uses thereof” (Sanford-Burnham Medical Research Institute, priority 2014, dated 2018)
Entries after “also recorded” stand apart in the source; their conditions may differ.

Assays:
[1] = target: Serotonin (5-Hydroxytryptamine) 5-HT2A (Homo sapiens (Human), UniProt P28223); experiment: PDSP radioligand binding; conditions: displacement of radioligand
mGlu3 [2] = target: T1, mGlu3 (Rattus norvegicus (Rat), UniProt P31422); experiment: mGlu3 GIRK thallium flux assay; conditions: for General activity at mGlu3: full agonist concentration-response ± 10 μM compound; for Emin, minimal response of the concentration-response of agonist: mGlu3, 10 μM compound;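 on all read-outs here: kinetic fluorescence slope read shortly after thallium plus agonist addition, scaled between vehicle and maximal agonist control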
forty-five CNS receptors = experiment: CNS receptors panel (NIMH PDSP), radioligand binding; conditions: 10 μM
[3] = target: Peripheral benzodiazepine receptor ([3H]PK11195) (Rattus norvegicus (Rat), UniProt P16257); experiment: PDSP radioligand binding
mGlu4 = mGlu4 (Rattus norvegicus (Rat), UniProt P31423); experiment: mGlu4 GIRK thallium flux assay; format: cell-based; conditions: full agonist concentration-response ± 10 μM compound
mGlu8 = mGlu8 (Rattus norvegicus (Rat), UniProt P70579); experiment: mGlu8 GIRK thallium flux assay; format: cell-based; conditions: full agonist concentration-response ± 10 μM compound
mGlu1 = mGlu1 (Rattus norvegicus (Rat), UniProt P23385); experiment: mGlu1 calcium assay; format: cell-based; conditions: full agonist concentration-response ± 10 μM compound
Muscarinic M4 = Muscarinic M4 (Homo sapiens (Human), UniProt P08173); experiment: PDSP radioligand binding; conditions: Muscarinic M4, 10 μM, displacement of radioligand
mGlu2 [4] = target: T2, mGlu2 (Rattus norvegicus (Rat), UniProt P31421); experiment: mGlu2 GIRK thallium flux assay; conditions: for General activity at mGlu2: full agonist concentration-response ± 10 μM compound; for Emin, minimal response of the concentration-response of agonist: mGlu2, 10 μM compound;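 on all read-outs here: Cell-based assay, rate of fluorescence rise right after thallium plus agonist addition read on a kinetic imaging plate reader, normalized to vehicle and maximal agonist control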
Dopamine D5 = Dopamine D5 (Homo sapiens (Human), UniProt P21918); experiment: PDSP radioligand binding; conditions: Dopamine D5, 10 μM, displacement of radioligand
mGlu6 = mGlu6 (Rattus norvegicus (Rat), UniProt P35349); experiment: mGlu6 GIRK thallium flux assay; format: cell-based; conditions: full agonist concentration-response ± 10 μM compound
mGlu5 = mGlu5 (Rattus norvegicus (Rat), UniProt P31424); experiment: mGlu5 calcium assay; format: cell-based; conditions: full agonist concentration-response ± 10 μM compound
[5] = In vivo PK in rats, i.p. administration; conditions: 10 mg/kg; for Kp at 30 min: rat, brain and plasma, ip
Histamine H1 = Histamine H1 (Homo sapiens (Human), UniProt P35367); experiment: PDSP radioligand binding; conditions: Histamine H1, 10 μM, displacement of radioligand
[6] = target: Transporter, Serotonin (5-Hydroxytryptamine) (SERT) (Homo sapiens (Human), UniProt P31645); experiment: PDSP radioligand binding; conditions: displacement of radioligand
Muscarinic M2 = Muscarinic M2 (Homo sapiens (Human), UniProt P08172); experiment: PDSP radioligand binding; conditions: Muscarinic M2, 10 μM, displacement of radioligand
Adrenergic α2C = Adrenergic α2C (Homo sapiens (Human), UniProt P18825); experiment: PDSP radioligand binding; conditions: displacement of radioligand
mGlu7 = mGlu7 (Rattus norvegicus (Rat), UniProt P35400); experiment: mGlu7 GIRK thallium flux assay; format: cell-based; conditions: full L-AP4 concentration-response ± 10 μM compound
Dopamine D2 = Dopamine D2 (Homo sapiens (Human), UniProt P14416); experiment: PDSP radioligand binding; conditions: Dopamine D2, 10 μM, displacement of radioligand
[7] = format: in vitro ADME; conditions: rat, 1 h
[8] = 100 μM, pH 7.2
[9] = rat, microsomes, 1 h
[10] = rat, in vivo, ip, 10 mg/kg
[11] = In vivo PK in rats, i.v. administration; parameters: species or system rat; conditions: 2 mg/kg
mGlu3 [12] = target: T1, mGlu3; experiment: TREx293 mGlu3 Gα15 calcium assay; format: cell-based; conditions: presence of an EC20 of glutamate, 20 ng/mL Tet for 20 h
Protocol: In order to generate a tetracycline (Tet)-inducible rat mGlu3 stable cell line to be used for a calcium mobilization assay, TREx293 cells (Invitrogen) were transfected with mouse Gα15-pCMV6 plasmid (Origene) using Fugene6 (Promega). The cells were selected for Gα15 expression with 1 mg/mL G418 in the presence of 10 μg/ml blasticidin to maintain Tet Repressor expression. Two weeks after the selection, polyclonal TREx293 Gα15 cells were obtained. The entire coding sequence of rat mGlu3 was amplified by polymerase chain reaction (PCR) and cloned into the Tet-inducible expression plasmid pcDNA5/TO (Invitrogen). Rat mGlu3-pcDNA5/TO was transfected into TREx293 Gα15 cells and selected for mGlu3 expression with 200 μg/ml hygromycin in the presence of G418 and blasticidin.
For mGlu3 the TREx tetracycline-inducible system (Invitrogen) was utilized. […] In the absence of Tet, no measurable expression of mGlu3 is detected either by Western blot (FIG. 3A) or by functional response to calcium mobilization (FIG. 3B). […] Data were analyzed using nonlinear regression. Data were obtained from three separate experiments performed in triplicate, normalized to the response to 100 μM glutamate in each experiment, and are expressed as the mean±SEM.

[13] = In vivo PK in rats, p.o. administration; parameters: species or system rat; conditions: 20 mg/kg
mGlu2 [14] = target: T2, mGlu2; experiment: HEK293A mGlu2 Gα15 calcium assay; format: cell-based; conditions: presence of an EC20 of glutamate
[15] = test system: cocaine-maintained responding in rats; experiment: Cocaine self-administration experiment; format: in vivo, rat
Protocol: (§1) Subjects. Male Wistar rats (Charles River Laboratories, Raleigh, N.C.) weighing 300-350 g at the beginning of each experiment were housed in pairs in standard rat Plexiglas cages with food and water available ad libitum, except during food training and the food self-administration experiment (see below). Rats were maintained in a climate-controlled room at 21° C. on a 12 h reverse light/dark cycle and all experiments were conducted during the dark (i.e., active) phase (7:00 h-19:00 h) of the cycle under dim red lighting. All procedures were conducted in accordance with the guidelines from the National Institutes of Health and the Association for the Assessment and Accreditation of Laboratory Animal Care and were approved by the Institutional Animal Care and Use Committee.
Drugs. Cocaine hydrochloride (National Institute on Drug Abuse, Bethesda, Md.) was dissolved in sterile physiological saline and filtered through a 0.22 μm syringe filter (Fisher Scientific, Pittsburgh, Pa.) for sterilization purposes.
Food Training. […]
(§2) Statistical Analyses. […] Significant effects were further analyzed with Tukey post hoc tests. […]

[16] = test system: food-maintained responding in rats; experiment: Food self-administration experiment; format: in vivo, rat; conditions: rats, 0, 10, 20, 40 mg/kg i.p., 60 min pretreatment
Protocol: as §1
Food Training. Details regarding the experimental procedures have been described previously.^37 All rats were placed under food restriction (20 g food/day) and trained during daily 1 hr sessions to lever press for 45 mg food pellets (Research Diets, New Brunswick, N.J.) under a fixed ratio 1 reinforcement schedule with a 1 s time-out period (FR1 TO1s). Successful responses were followed by illumination of a cue light for the duration of the time-out period, when lever presses had no consequence. […]
as §2

[17] = compound concentration-response in presence and absence of EC20 glutamate

Sequence of mGlu4 (P31423 33-912): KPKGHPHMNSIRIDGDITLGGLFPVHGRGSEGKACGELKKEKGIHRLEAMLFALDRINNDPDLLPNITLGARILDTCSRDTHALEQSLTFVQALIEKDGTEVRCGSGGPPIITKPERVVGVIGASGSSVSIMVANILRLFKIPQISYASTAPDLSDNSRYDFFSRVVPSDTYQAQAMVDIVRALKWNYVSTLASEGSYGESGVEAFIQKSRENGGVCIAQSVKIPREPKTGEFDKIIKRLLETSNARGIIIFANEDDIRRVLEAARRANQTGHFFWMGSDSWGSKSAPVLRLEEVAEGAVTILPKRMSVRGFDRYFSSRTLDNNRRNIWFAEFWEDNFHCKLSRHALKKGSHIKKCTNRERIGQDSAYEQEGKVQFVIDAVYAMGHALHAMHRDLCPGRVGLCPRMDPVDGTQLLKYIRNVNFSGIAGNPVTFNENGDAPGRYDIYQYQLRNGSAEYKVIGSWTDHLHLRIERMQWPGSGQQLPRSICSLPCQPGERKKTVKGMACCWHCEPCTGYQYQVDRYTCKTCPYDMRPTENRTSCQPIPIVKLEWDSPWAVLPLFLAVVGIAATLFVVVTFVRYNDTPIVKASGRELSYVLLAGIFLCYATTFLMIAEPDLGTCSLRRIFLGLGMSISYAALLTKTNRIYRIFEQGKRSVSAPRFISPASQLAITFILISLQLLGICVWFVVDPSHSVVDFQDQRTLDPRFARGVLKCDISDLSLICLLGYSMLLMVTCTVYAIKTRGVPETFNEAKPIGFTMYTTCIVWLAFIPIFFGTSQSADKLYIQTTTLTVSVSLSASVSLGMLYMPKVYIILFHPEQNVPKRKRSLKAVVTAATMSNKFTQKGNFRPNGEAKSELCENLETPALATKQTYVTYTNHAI
Sequence of mGlu5 (P31424 21-1203): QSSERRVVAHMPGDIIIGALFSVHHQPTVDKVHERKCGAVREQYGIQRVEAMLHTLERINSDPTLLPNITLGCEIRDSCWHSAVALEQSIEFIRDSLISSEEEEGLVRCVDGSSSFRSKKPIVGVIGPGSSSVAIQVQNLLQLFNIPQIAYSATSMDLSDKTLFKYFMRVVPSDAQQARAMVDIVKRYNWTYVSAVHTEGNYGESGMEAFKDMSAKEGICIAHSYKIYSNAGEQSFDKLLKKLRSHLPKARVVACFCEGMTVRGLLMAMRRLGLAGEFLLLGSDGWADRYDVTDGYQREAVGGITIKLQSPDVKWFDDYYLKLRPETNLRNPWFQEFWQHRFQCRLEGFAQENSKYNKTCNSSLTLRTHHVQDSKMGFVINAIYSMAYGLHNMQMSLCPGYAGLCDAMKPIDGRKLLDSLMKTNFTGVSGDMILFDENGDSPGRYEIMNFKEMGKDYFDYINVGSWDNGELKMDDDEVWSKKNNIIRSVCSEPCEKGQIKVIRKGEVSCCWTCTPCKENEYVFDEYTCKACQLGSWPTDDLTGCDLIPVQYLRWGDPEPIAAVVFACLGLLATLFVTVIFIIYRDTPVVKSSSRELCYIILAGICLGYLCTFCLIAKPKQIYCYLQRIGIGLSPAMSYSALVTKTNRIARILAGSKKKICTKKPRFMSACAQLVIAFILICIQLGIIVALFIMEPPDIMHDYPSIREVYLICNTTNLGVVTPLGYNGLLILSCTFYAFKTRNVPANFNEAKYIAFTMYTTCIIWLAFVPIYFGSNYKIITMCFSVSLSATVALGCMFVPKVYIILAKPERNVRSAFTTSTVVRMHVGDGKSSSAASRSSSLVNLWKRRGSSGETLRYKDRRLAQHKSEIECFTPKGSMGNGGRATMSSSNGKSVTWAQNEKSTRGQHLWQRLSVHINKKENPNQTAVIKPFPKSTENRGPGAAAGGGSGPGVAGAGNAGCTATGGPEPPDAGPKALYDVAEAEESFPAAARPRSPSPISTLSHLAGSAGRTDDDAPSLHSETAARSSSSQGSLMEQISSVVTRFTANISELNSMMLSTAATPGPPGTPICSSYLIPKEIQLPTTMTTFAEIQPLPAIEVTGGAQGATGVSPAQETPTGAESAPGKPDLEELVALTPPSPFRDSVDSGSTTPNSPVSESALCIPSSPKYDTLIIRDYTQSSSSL
T1 sequence (P31422 23-879): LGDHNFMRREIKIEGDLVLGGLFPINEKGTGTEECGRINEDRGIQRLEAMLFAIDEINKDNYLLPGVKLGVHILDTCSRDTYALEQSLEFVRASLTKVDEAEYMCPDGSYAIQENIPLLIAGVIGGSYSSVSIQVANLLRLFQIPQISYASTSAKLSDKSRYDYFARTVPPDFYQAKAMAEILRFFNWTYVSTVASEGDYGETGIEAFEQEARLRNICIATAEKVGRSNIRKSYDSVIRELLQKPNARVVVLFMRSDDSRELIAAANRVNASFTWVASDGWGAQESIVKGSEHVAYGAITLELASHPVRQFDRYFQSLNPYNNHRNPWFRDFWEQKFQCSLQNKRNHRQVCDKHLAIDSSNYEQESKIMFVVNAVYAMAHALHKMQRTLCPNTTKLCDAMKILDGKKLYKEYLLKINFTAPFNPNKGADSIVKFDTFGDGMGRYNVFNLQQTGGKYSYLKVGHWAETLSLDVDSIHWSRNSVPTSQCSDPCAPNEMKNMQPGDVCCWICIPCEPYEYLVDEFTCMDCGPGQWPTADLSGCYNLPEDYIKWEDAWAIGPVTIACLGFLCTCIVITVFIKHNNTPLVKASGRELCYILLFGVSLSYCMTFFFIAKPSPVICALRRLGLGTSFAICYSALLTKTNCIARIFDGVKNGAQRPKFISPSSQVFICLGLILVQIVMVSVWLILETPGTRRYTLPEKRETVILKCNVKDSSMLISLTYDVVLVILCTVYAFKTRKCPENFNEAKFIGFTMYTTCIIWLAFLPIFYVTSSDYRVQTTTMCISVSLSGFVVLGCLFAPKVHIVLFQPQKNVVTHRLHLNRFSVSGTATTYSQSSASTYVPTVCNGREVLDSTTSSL
Sequence of mGlu6 (P35349 24-871): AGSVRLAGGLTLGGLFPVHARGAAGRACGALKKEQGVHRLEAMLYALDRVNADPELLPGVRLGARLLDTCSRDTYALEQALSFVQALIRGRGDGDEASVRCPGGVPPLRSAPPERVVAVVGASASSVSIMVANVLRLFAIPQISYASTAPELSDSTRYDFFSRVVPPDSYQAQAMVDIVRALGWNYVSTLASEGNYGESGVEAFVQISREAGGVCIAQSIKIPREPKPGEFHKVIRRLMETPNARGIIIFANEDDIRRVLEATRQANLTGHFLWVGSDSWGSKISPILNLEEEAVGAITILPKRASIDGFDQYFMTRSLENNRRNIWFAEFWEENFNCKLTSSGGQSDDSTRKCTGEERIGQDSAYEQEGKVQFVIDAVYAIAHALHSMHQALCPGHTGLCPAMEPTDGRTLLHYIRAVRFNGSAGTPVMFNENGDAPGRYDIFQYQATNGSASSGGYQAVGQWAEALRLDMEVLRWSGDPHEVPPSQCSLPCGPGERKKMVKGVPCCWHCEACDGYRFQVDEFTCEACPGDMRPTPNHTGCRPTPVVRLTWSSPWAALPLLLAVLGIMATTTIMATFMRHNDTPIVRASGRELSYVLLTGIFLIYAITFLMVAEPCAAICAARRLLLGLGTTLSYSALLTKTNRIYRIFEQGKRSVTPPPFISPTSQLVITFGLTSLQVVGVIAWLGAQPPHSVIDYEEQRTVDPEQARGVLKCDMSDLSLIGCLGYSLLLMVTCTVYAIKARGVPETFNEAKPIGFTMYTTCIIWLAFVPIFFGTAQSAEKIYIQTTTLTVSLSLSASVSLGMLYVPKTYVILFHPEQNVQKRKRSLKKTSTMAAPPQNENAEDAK
Sequence of mGlu7 (P35400 35-915): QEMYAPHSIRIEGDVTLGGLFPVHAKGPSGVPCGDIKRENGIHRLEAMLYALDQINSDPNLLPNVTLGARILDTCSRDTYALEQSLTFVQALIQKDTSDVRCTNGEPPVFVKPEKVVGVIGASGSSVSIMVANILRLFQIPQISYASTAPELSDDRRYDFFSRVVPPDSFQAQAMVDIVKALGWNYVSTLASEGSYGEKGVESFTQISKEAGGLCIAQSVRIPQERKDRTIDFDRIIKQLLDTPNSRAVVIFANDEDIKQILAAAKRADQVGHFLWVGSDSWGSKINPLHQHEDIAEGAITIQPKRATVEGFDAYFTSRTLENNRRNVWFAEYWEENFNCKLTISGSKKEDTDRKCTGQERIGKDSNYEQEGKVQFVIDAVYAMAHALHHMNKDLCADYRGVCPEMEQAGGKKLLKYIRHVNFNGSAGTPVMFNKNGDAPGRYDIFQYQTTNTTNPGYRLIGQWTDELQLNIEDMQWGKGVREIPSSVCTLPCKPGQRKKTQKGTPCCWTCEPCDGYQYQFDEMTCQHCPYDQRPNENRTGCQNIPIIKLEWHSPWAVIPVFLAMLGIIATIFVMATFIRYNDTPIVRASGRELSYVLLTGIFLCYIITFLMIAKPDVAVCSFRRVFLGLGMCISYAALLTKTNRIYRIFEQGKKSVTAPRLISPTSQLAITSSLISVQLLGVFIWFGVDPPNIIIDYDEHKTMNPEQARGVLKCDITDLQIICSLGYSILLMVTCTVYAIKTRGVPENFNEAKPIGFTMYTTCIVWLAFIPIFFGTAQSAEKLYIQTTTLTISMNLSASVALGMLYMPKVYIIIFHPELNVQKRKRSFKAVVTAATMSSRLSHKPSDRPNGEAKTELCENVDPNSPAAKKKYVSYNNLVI
Sequence of Peripheral benzodiazepine receptor ([3H]PK11195) (P16257 whole entry, looked up): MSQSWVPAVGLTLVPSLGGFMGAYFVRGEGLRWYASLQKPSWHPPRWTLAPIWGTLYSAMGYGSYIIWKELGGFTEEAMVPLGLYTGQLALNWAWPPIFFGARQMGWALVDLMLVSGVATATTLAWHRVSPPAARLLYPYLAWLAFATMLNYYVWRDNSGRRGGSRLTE

SMILES	General activity at mGlu3 (mGlu3 [2])	Emin, minimal response of the concentration-response of agonist (mGlu3 [2])	General activity at mGlu4 (mGlu4)	General activity at mGlu8 (mGlu8)	General activity at mGlu1 (mGlu1)	General activity at mGlu2 (mGlu2 [4])	Emin, minimal response of the concentration-response of agonist (mGlu2 [4])	General activity at mGlu6 (mGlu6)	General activity at mGlu5 (mGlu5)	Plasma, maximum concentration ([5]; rats, i.p., Tmax 30 min) [µM]	General activity at mGlu7 (mGlu7)	PAMPA (LogPapp) [8]	Kp at 30 min [5]	further results
COc1ccc(C(=O)O)cc1OCCCCOc1ccc(C(=O)CC(C)(C)C)c(O)c1C [compound 72, 3-(4-(4-(3,3-Dimethylbutanoyl)-3-hydroxy-2-methylphenoxy)butoxy)-4-methoxybenzoic acid]	Ago-PAM	Emin = 54%	inactive^b	inactive^b	inactive^b	Ago-PAM	Emin = 72%	inactive^b	inactive^b	2.44 ± 2.19	inactive^b	–	–	inhibition at 10 µM [1]: -0.6%; binding activity at forty-five CNS receptors (forty-five CNS receptors): no binding activity was detected; inhibition at 10 µM [3]: 1%; inhibition at 10 µM (Muscarinic M4): -0.9%; inhibition at 10 µM (Dopamine D5): -0.9%; inhibition at 10 µM (Histamine H1): 0.2%; inhibition at 10 µM [6]: 0.3%; inhibition at 10 µM (Muscarinic M2): -1%; inhibition at 10 µM (Adrenergic α2C): 0.6%; inhibition at 10 µM (Dopamine D2): 1%
COc1cc(C(=O)O)ccc1OCCCCOc1ccc(C(=O)CC2CCCC2)c(O)c1C [Compound 45, 4-{4-[4-(2-Cyclopentylacetyl)-3-hydroxy-2-methylphenoxy]butoxy}-methoxybenzoic acid]	–	–	–	–	–	–	–	–	–	–	–	−6.54	–	Plasma Stability, percent remaining [7]: 100%; Microsomal stability, percent remaining [9]: 31%
COc1cc(C(=O)O)ccc1OCCCCOc1ccc(C(=O)CC(C)(C)C)c(O)c1C [compound 73]	Ago-PAM	–	inactive^b	inactive^b	inactive^b	–	–	PAM	inactive^b	–	inactive^b	−5.46	–	Brain: Plasma [10]: 0.02 ± 0.01
COc1cc(C(=O)O)ccc1OCCCCOc1ccc(C(=O)CC(C)C)c(O)c1C [Compound 44, 4-{4-[3-Hydroxy-2-methyl-4-(3-methylbutanoyl)phenoxy]butoxy}-3-methoxybenzoic acid]	PAM	Emin = 4%	inactive^b	inactive^b	inactive^b	Ago-PAM	Emin = 90%	inactive^b	inactive^b	10.57 ± 2.52	inactive^b	–	0.03 ± 0.01	activity toward mGlu3 in GIRK thallium-flux assay (mGlu3 [2]; [17]): PAM activity; AUC(0→t) [11]: 304.6 ± 25.8 (μmol/L)*min; Cmax ([11]; rat, iv, plasma): 6.43 ± 0.39 µM; Vd ([11]; rat, plasma, iv, read-out: Vdss): 0.55 ± 0.04 L/kg; activity in TREx293 mGlu3 Gα15 calcium assay (mGlu3 [12]): demonstrates mGlu3 PAM activity; intrinsic agonist activity towards mGlu2 (Agonist Mode) (mGlu2 [4]; absence of an EC20 concentration of agonist): intrinsic agonist activity; activity toward mGlu2 in GIRK thallium-flux assay (mGlu2 [4]; [17]): Ago-PAM activity; AUC(0→t) [13]: 1274.6 ± 246.3 (μmol/L) min; F, oral bioavailability [13]: 41.9%; Plasma ([13]; harvested at or near the Tmax): 16.38 ± 1.1 µM; Kp ([13]; rat, brain and plasma, po, read-out: Brain:Plasma ratio): 0.05 ± 0.01; Tmax ([13]; rat, plasma, po): 1.5 h; Cmax ([13]; rat, po, plasma): 2.75 ± 0.47 µM; activity in HEK293A mGlu2 Gα15 calcium assay (mGlu2 [14]): behaves as a PAM; also recorded: PAM activity; Brain, maximum concentration ([5]; rats, i.p., Tmax 30 min): 0.23 ± 0.10 µM
Cc1c(OCCCCOc2ccc(C(=O)CC(C)(C)C)c(O)c2C)cccc1C(=O)O [compound 74, 3-(4-(4-(3,3-Dimethylbutanoyl)-3-hydroxy-2-methylphenoxy)butoxy)-2-methylbenzoic acid]	–	–	–	–	–	–	–	–	–	–	–	–	0.03 ± 0.01	cocaine-maintained responding ([15]; rats, 0, 10, 20, 40 mg/kg i.p., 60 min pretreatment): dose-dependently decreased; also recorded: decreasing cocaine-maintained responding; cocaine-maintained responding compared with food-maintained responding ([15]; rats, highest dose tested 40 mg/kg i.p., p<0.05): decreased to a greater extent than food-maintained responding; also recorded: cocaine-maintained responding was significantly lower than food-maintained responding; food-maintained responding [16]: dose-dependently decreased
